These results are taken from patent US9815796B2 (Merck Sharp & Dohme Corp., priority 2013, dated 2017).

The test concerns the target human PDE2A1 (Homo sapiens (Human), UniProt O00408). Put plainly: IMAP FP PDE selectivity panel, human PDE2A1. The format is biochemical. The note with it: Human PDE2, Lab B; read-out: Human PDE2 Ki (nM) - Lab B. The essentials: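 IMAP FP format: substrate 50 nM FAM-cAMP plus 1000 nM cGMP, enzyme (insect-cell GST-tagged human PDE2A1) at ~20% conversion, 60 min reaction at room temperature. Apparent inhibition constants calculated from parallel/perpendicular fluorescence with KM 10,000 nM.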

human PDE2A1, sequence (O00408 other isoform, or with tags, fused parts or gaps): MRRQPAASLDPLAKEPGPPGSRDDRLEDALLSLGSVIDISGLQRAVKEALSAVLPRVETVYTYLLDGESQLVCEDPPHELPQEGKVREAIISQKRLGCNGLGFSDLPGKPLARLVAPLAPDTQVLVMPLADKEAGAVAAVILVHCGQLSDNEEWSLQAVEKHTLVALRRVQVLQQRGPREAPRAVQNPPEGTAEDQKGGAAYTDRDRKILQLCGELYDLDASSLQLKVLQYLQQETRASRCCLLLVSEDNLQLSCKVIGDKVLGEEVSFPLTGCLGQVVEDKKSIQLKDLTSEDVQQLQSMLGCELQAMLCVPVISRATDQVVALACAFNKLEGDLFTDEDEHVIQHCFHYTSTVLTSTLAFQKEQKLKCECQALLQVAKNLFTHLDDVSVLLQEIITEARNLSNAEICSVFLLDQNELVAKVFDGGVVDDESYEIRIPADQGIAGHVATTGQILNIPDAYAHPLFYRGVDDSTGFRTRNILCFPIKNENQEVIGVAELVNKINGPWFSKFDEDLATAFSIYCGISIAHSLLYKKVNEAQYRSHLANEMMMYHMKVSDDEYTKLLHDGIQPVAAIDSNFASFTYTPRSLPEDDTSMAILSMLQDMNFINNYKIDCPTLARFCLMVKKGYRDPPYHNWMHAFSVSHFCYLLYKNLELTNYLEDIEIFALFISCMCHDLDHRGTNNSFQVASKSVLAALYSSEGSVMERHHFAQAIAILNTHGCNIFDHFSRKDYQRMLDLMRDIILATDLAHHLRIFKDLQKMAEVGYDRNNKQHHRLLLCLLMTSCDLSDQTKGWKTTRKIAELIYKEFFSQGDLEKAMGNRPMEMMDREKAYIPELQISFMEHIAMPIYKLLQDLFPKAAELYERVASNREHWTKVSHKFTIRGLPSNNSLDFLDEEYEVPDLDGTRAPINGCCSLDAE

As to `CCC(C)(NC(=O)c1cc(=O)[nH]c(C)n1)c1ccc(C(F)(F)F)cc1F` (single isomer, unassigned) [Example 719, (R)- or (S)-N-(2-(2-fluoro-4-(trifluoromethyl)phenyl)butan-2-yl)-2-methyl-6-oxo-1,6-dihydropyrimidine-4-carboxamide], the Ki (commonly the dissociation constant of the complex between target and ligand, obtained from inhibition or displacement) is 7.7 nM.

Take `CC1(c2ccc(C(NC(=O)c3cc(=O)[nH]c(C4CC4)n3)C(C)(C)C)cc2F)CC1` (single isomer, unassigned) [Example 712, (S)- or (R)-2-cyclopropyl-N-(1-(3-fluoro-4-(1-methylcyclopropyl)phenyl)-2,2-dimethylpropyl)-6-oxo-1,6-dihydropyrimidine-4-carboxamide]: the Ki stood at 237 nM.

`Cc1nc(C(=O)NC(C)c2ccc(C3(C(F)(F)F)CC3)cc2)cc(=O)[nH]1` (single isomer, unassigned) [Example 687, (R)- or (S)-2-methyl-6-oxo-N-(1-(4-(1-(trifluoromethyl)cyclopropyl)phenyl)-ethyl)-1,6-dihydropyrimidine-4-carboxamide]: the Ki came out at 108 nM.

Turning to `CC(C)(C)[C@@H](NC(=O)c1cc(=O)[nH]c(-c2ccccc2)n1)c1ccc(C(F)(F)F)c(F)c1` [Example 538, N-{(1R)-1-[3-fluoro-4-(trifluoromethyl)phenyl]-2,2-dimethylpropyl}-6-oxo-2-phenyl-1,6-dihydropyrimidine-4-caboxamide], the Ki was 1.4 nM.

Regarding `CC(C)(C)[C@@H](NC(=O)c1cc(=O)[nH]c(-c2ccccc2)n1)c1ccc(S(F)(F)(F)(F)F)cc1` [Example 540, N-{(1R)-2,2-dimethyl-1-[4-(pentafluoro-λ^6-sulfanyl)phenyl]propyl}-6-oxo-2-phenyl-1,6-dihydropyrimidine-4-carboxamide], the Ki was determined as 1.6 nM.

Consider `Cc1nc(C(=O)NC2(c3ccc(C(F)F)cc3)CC2)cc(=O)[nH]1` [Example 660, N-{1-[4-(difluoromethyl)phenyl]cyclopropyl}-2-methyl-6-oxo-1,6-dihydropyrimidine-4-carboxamide], for which the Ki amounted to 54 nM.

Consider `Cc1nc(C(=O)N[C@@H](c2ccc(OC(F)F)c(F)c2)C2CC2)cc(=O)[nH]1` [Example 629, N-{(R)-cyclopropyl[4-(difluoromethoxy)-3-fluorophenyl]methyl]-2-methyl-6-oxo-1,6-dihydropyrimidine-4-carboxamide], for which the Ki was found to be 53 nM.

Consider `O=C(N[C@@H]1COCc2cc(C(F)(F)F)ccc21)c1cc(=O)[nH]c(-c2ccccc2)n1` [Example 551, 6-oxo-2-phenyl-N-[(4S)-7-(trifluoromethyl)-3,4-dihydro-1H-isochromen-4-yl]-1,6-dihydropyrimidine-4-carboxamide], for which the Ki turned out to be 157 nM.

Turning to `Cc1nc(C(=O)NC(C)c2ccc(C(F)(F)C(F)(F)F)cc2)cc(=O)[nH]1` (single isomer, unassigned) [Example 684, (S)- or (R)-2-methyl-6-oxo-N-(1-(4-(perfluoroethyl)phenyl)ethyl)-1,6-dihydropyrimidine-4-carboxamide], the Ki was greater than 2960 nM.

On to `CC(NC(=O)c1cc(=O)[nH]c(C2CC2)n1)c1ccc(C(C)(C)C(F)(F)F)cc1` (single isomer, unassigned) [Example 696], for which the Ki is greater than 2960 nM.

For the compound `CC[C@@H](NC(=O)c1cc(=O)[nH]c(-c2ncccn2)n1)c1ccc2c(c1)OC(F)(F)O2` [Example 590, N-[(1R)-1-(2,2-difluoro-1,3-benzodioxol-5-yl)propyl]-6-oxo-1,6-dihydro-2,2′-bipyrimidine-4-carboxamide], the Ki was found to be 34 nM.

Regarding `Cc1nc(C(=O)N[C@@H](c2ccc(C(F)(F)F)c(F)c2)C(C)(C)O)cc(=O)[nH]1` [Example 723, N-{(1S)-1-[3-fluoro-4-(trifluoromethyl)phenyl]-2-hydroxy-2-methylpropyl}-2-methyl-6-oxo-1,6-dihydropyrimidine-4-carboxamide], the Ki was determined as 8.6 nM.

For the compound `CC1([C@@H](NC(=O)c2cc(=O)[nH]c(-c3ncccn3)n2)c2ccc3c(c2)OC(F)(F)O3)CC1` [Example 585, N-[(R)-(2,2-difluoro-1,3-benzodioxol-5-yl)(1-methylcyclopropyl)methyl]-6-oxo-1,6-dihydro-2,2′-bipyrimidine-4-carboxamide], the Ki came to 39 nM.

Turning to `Cc1cc(C(F)(F)F)ccc1C(C)(C)NC(=O)c1cc(=O)[nH]c(-c2ncccn2)n1` [Example 569, N-{1-methyl-1-[2-methyl-4-(trifluoromethyl)phenyl]ethyl}-6-oxo-1,6-dihydro-2,2′-bipyrimidine-4-carboxamide], the Ki is 139 nM.

For `CC(C)[C@@H](NC(=O)c1cc(=O)[nH]c(-c2ncccn2)n1)c1ccc2c(c1)OC(F)(F)O2` [Example 592, N-[(1R)-1-(2,2-difluoro-1,3-benzodioxol-5-yl)-2-methylpropyl]-6-oxo-1,6-dihydro-2,2′-bipyrimidine-4-carboxamide], the Ki came out at 15 nM.

Turning to `Cc1nc(C(=O)N[C@@H](c2ccc(OC(F)F)c(F)c2)C(C)(C)C)cc(=O)[nH]1` [Example 630, N-{(1R)-1-[4-(difluoromethoxy)-3-fluorophenyl]-2,2-dimethylpropyl}-2-methyl-6-oxo-1,6-dihydropyrimidine-4-carboxamide], the Ki worked out at 5.1 nM.

On to `Cc1nc(C(=O)NC(C)(C)c2ccc(C(F)F)c(F)c2)cc(=O)[nH]1` [Example 654, N-{1-[4-(difluoromethyl)-3-fluorophenyl]-1-methylethyl}-2-methyl-6-oxo-1,6-dihydropyrimidine-4-carboxamide], for which the Ki was determined as 72 nM.

With `CC(C)[C@@H](NC(=O)c1cc(=O)[nH]c(-c2ccccc2)n1)c1ccc(C2(C)CC2)cc1` [Example 533, N-{(1R)-2-methyl-1-[4-(1-methylcyclopropyl)phenyl]propyl}-6-oxo-2-phenyl-1,6-dihydropyrimidine-4-carboxamide], the Ki stood at 8 nM.

For the compound `CC(NC(=O)c1cc(=O)[nH]c(C2CC2)n1)c1ccc(C2(C(F)(F)F)CC2)cc1` (single isomer, unassigned) [Example 689, (R)- or (S)-2-cyclopropyl-6-oxo-N-(1-(4-(1-(trifluoromethyl)cyclopropyl)phenyl)-ethyl)-1,6-dihydropyrimidine-4-carboxamide], the Ki was determined as 67 nM.

As to `C[C@@H](NC(=O)c1cc(=O)[nH]c(-c2ncco2)n1)c1ccc(C(F)(F)F)cc1` [Example 675, (R)-2-(oxazol-2-yl)-6-oxo-N-(1-(4-(trifluoromethyl)phenyl)ethyl)-1,6-dihydropyrimidine-4-carboxamide], the Ki turned out to be 234 nM.

For the compound `Cc1nc(C(=O)N[C@]2(c3ccc(C(C)C)cc3)C[C@H]2C)cc(=O)[nH]1` (single isomer, unassigned) [Example 664, 2-methyl-N-{2-methyl-1-[4-(1-methylethyl)phenyl]cyclopropyl}-6-oxo-1,6-dihydropyrimidine-4-carboxamide], the Ki is roughly 1570 nM.

Take `C[C@@H](NC(=O)c1cc(=O)[nH]c(-c2ncccn2)n1)c1ccc2c(c1)OC(F)(F)O2` [Example 587, N-[(1R)-1-(2,2-difluoro-1,3-benzodioxol-5-yl)ethyl]-6-oxo-1,6-dihydro-2,2′-bipyrimidine-4-carboxamide]: the Ki is 71 nM.

`CC(C)(C)c1ccc([C@H](NC(=O)c2cc(=O)[nH]c(-c3ncccn3)n2)C2(C)CC2)cc1` [Example 563, N-[(R)-(4-tert-butylphenyl)(1-methylcyclopropyl)methyl]-6-oxo-1,6-dihydro-2,2′-bipyrimidine-4-carboxamide]: the Ki was 27 nM.

Take `Cc1nc(C(=O)N[C@@H](c2ccc(C3(C)CC3)cc2)C(C)C)cc(=O)[nH]1` [Example 532, 2-methyl-N-{(1R)-2-methyl-1-[4-(1-methylcyclopropyl)phenyl]propyl}-6-oxo-1,6-dihydropyrimidine-4-carboxamide]: the Ki stood at 16 nM.

Regarding `CC(C)c1ccc([C@H](NC(=O)c2cc(=O)[nH]c(-c3ncccn3)n2)C2(C)CC2)cc1` [Example 562, N-{(R)-(1-methylcyclopropyl)[4-(1-methylethyl)phenyl]methyl}-6-oxo-1,6-dihydro-2,2′-bipyrimidine-4-carboxamide], the Ki stood at 4.3 nM.

Consider `CC(C)(C)C(NC(=O)c1cc(=O)[nH]c(-c2ncco2)n1)c1ccc(C(F)(F)F)cc1` (single isomer, unassigned) [Example 682, (R)- or (S)-N-(2,2-dimethyl-1-(4-(trifluoromethyl)phenyl)propyl)-2-(oxazol-2-yl)-6-oxo-1,6-dihydropyrimidine-4-carboxamide], for which the Ki stood at 48 nM.

On to `Cc1nc(C(=O)NC2(c3ccc4c(c3)OC(F)(F)O4)CC2)cc(=O)[nH]1` [Example 534, N-[1-(2,2-difluoro-1,3-benzodioxol-5-yl)cyclopropyl]-2-methyl-6-oxo-1,6-dihydropyrimidine-4-carboxamide], for which the Ki amounted to 87 nM.

For the compound `Cc1nc(C(=O)N[C@@H](c2ccc(C(F)F)cc2)C2CC2)cc(=O)[nH]1` [Example 649, N-{(1R)-cyclopropyl[4-(difluoromethyl)phenyl]methyl}-2-methyl-6-oxo-1,6-dihydropyrimidine-4-carboxamide], the Ki stood at 47 nM.

Turning to `Cc1nc(C(=O)N[C@H](C)c2ccc(S(F)(F)(F)(F)F)cc2F)cc(=O)[nH]1` [Example 672, N-(1-(2-fluoro-4-(pentafluorothio)phenyl)ethyl)-2-methyl-6-oxo-1,6-dihydropyrimidine-4-carboxamide], the inhibition constant Ki is greater than 2960 nM.

`CC(C)(NC(=O)c1cc(=O)[nH]c(-c2ncccn2)n1)c1ccc2c(c1)OC(F)(F)O2` [Example 588, N-[1-(2,2-difluoro-1,3-benzodioxol-5-yl)-1-methylethyl]-6-oxo-1,6-dihydro-2,2′-bipyrimidine-4-carboxamide]: the Ki turned out to be 303 nM.

In the case of `Cc1cnc(-c2nc(C(=O)N[C@H](C)c3ccc(C(F)(F)F)cc3)cc(=O)[nH]2)o1` [Example 676, (R)-2-(5-methyloxazol-2-yl)-6-oxo-N-(1-(4-(trifluoromethyl)phenyl)ethyl)-1,6-dihydropyrimidine-4-carboxamide], the Ki turned out to be 478 nM.
